Here are results for 2 molecules from US20190291112A1, “DROPLET MICROFLUIDICS FOR DRUG SCREENING” (University of Macau, priority 2018, published 2019).

For experiment [1], the system named is primary tumor cell NAS1604 (nasopharyngeal tumor). The experiment in a line: On chip drug screening of primary tumor dissociated cells. In kind it is cell-based, human.
For experiment [2], the system named is MDA-MB-231 cells. The experiment in a line: 96-well microtiter plate drug screening assay (Alamar Blue). The class given is cell-based, human. Particulars: 96-well plate. The procedure:
(§1) Jurkat E6.1 cells (ATCC® TIB-152™) and MDA-MB-231 cells (ATCC® HTB-26™) were used as models for suspended and adherent cancer cell lines respectively. Jurkat cell line was derived from human acute T cell leukemia, whereas MDA-MB-231 cell line was derived from human metastatic breast adenocarcinoma.
(§2) Microtiter plate drug screening assays were carried out on 96-well clear round flat-bottom plates (Corning, USA) or 384-well white square flat-bottom plates (Corning, USA).
(§3) First, 5.0×10^5 or 1.0×10^5 cells were seeded per well for 96-well and 384-well plates respectively. Drugs were diluted with Dulbecco's phosphate-buffered saline (DPBS) (Life Technologies, USA), and subsequently added to achieve final drug concentrations as indicated on the graphs. Afterwards, the plates were transferred to humidified incubator at 37° C. supplemented with 5% CO2 for 16-24 h incubation. Finally, Alamar Blue assay was used to measure cell viability. Fluorescence intensity (Ex. 560 nm, Em. 590 nm) using auto-cutoff was measured from bottom on plate reader (Molecular Devices SpectraMax MS Plate Reader, USA). Cells treated with 0.1% dimethyl sulfoxide (DMSO) were used as negative control, while no cells were added to blank control. All experiments were performed in triplicate for 96-well plates and in quadruplicates for 384-well relates.
(§4) For microliter plate assays, average relative fluorescence signal measured by plate reader from 6 reads of each well was used as raw data point. Cell viability was calculated as follows: […]
(§5) where Sample represented raw data points of each sample well, whereas DMSO control and Blank represented average raw data points of all DMSO control and Blank wells, respectively.
For orientation: The colour change of resazurin is a common sign of viable cells or microbes.

Experiment [3] concerns Jurkat cells. The experiment is described as above. In kind it is cell-based, human. Particulars: 96-well plate, 16-24 h. As to the method:
as §1, §2, §3, §4, §5

The subject of experiment [4] is NAS1608 human primary nasopharyngeal tumor sample. The experiment in a line: cells. The class given is cell-based. Particulars: for viability at 1 µM / viability at 10 µM / cytotoxicity at 10 µM: Homo sapiens; for viability at 1 µM / viability at 10 µM: read-out: mean cell viability; for droplet cell viability range: 17 h post-treatment; for range of droplet cell viability: before treatment (0 h); for mean cell death: normalized to DMSO control, calibrated by 0 h data.

The subject of experiment [5] is MDA-MB-231 cells. The experiment in a line: On chip drug screening assay (ethidium homodimer 1 staining). The class given is cell-based, human. As to the method: as §1
On chip drug screening was performed using the PDMS-based microfluidic chip as described above. A 500 μL glass syringe (Hamilton, USA) and polytetrafluoroethylene (PTFE) tubings with appropriate bore (Cole Parmer, USA) was used to connect between the syringe pump (Harvard Apparatus PHD Ultra Syringe Pump, USA) and the microfluidic chip. Fluorinert® FC-40 (Sigma-Aldrich, USA) supplemented with 2% 008-Fluorosurfactant (Ran Biotechnologies, USA) was used as oil phase; relevant cell culture medium, supplemented with 1% (w/v) methyl cellulose (Sigma-Aldrich, USA) was used as aqueous phase. Cells treated with 0.1% dimethyl sulfoxide (DMSO) were used as negative control.
Briefly, cells at final concentrations of 1-2×10^6 cells per mL were aliquoted in 0.2 mL PCR tubes, then mixed with corresponding drugs and 2 μM ethidium homodimer 1 (Life Technologies, USA) by manual pipetting. Next, […], cell-drug mixtures were loaded into the tubing, consecutively segregated by oil phase at withdrawal rate of 200 μL/h by syringe pump. After loading all mixtures, the tubing was inserted into the microfluidic chip, which was back-flushed with oil phase at 500 μL/h by syringe pump. After that, the mixtures were infused at 25 μL/h by syringe pump. Finally, the inlet and outlet tubings were cut and sealed with Vaseline (Vaseline, USA). The chips were placed in 150 mm cell culture dish (Coming, USA) containing wet paper towels, and transferred to humidified incubator at 37° C. supplemented with 5% CO2 for 16-24 h incubation. Brightfield and red fluorescence images (Ex. 531/40 nm, Em. 593/40 nm) were taken under 10× magnification (Life Technologies EVOS FL Imaging System, USA).
For on chip assays, brightfield and red fluorescence images were initially processed by ImageJ v.1.50i, Cell counting was either performed manually or by Matlab v.R201.5a based on the workflow shown on FIG. 5B. Briefly, cells from brightfield and red fluorescence images were detected separately using a heuristic Hough Transformation model based on threshold implementation on circular diameter and pixel intensity. Next, each recognized cell was dissected into 10×10 pixels matrix for analysis of its pixel intensity. Subsequently, two layers of multi-radii analysis of pixel intensity around the center of each matrix distinguished signal from noise. Afterwards, cells were distinguished from noise based on the brightfield image, whereas cell viability was determined by signal intensity of corresponding red fluorescence image. Finally, positional information (defined by row: x, and column: y) and size (defined by radius: r) of discrete image matrix was used to classify each cell as “live” or “dead”. The total number of cells in each image corresponding to each droplet formation well on chip was summarized as a table in CSV format for calculation of cell viability. […]
For on chip assays, the number of cells was counted in brightfield and red fluorescence images from each well respectively. Cell viability was calculated as follows: […]
where Total cells and Dead cells referred to the total number of cells counted from brightfield and red fluorescence images, respectively. […]

In experiment [6] the test system is MDA-MB-231 cells. The experiment in a line: 384-well microtiter plate drug screening assay (Alamar Blue). In kind it is cell-based, human. Particulars: 384-well plate. As to the method: as §1, §2, §3, §4, §5
For experiment [7], the system named is Jurkat cells. The description is as above. In kind it is cell-based, human. Particulars: 384-well plate, 16-24 h. As to the method:
as §1, §2, §3, §4, §5

pIC50: −log10 of the molar value. Where two headings read alike, the source gives them in different places.

As to `CC(C)C[C@H](NC(=O)[C@H](Cc1ccccc1)NC(=O)c1cnccn1)B(O)O` [bortezomib], the “range of droplet cell viability” value in experiment [1] (NAS1604, 1 μM bortezomib) is listed as 42.6%; in experiment [4] (NAS1608, 10 μM bortezomib), 29.0%. The “mean cell viability compared with other treatments” value in experiment [1] (NAS1604, 1 μM, versus DMSO and cisplatin) is listed as “highest mean cell viability”. Moreover, the pIC50 (as a rule, −log10 of the IC50, conventionally taken in molar units) is less than 5.00 with MDA-MB-231 cells [2] (Homo sapiens), 4.66 in the experiment with Jurkat cells [3] (Homo sapiens), less than 5.00 in the experiment on MDA-MB-231 cells [5] (Homo sapiens) and 7.41 with Jurkat cells [7] (Homo sapiens). The viability (as a rule, the share of living cells, or the viability signal relative to a control) at 1 µM in experiment [4] (0 h) worked out at 72.9%; in experiment [4] (17 h) it was 42.5%. Besides, the viability at 10 µM in experiment [4] (0 h) turned out to be 78.8%; in experiment [4] (17 h), 34.6%; with MDA-MB-231 cells [6] (Homo sapiens, 10.0 μM dose, read-out: cell viability), 50%. Besides, the cytotoxicity at 10 µM in experiment [4] (17 h, read-out: droplet cell viability reduction in the majority of droplets) is 35 to 55%; in experiment [4] (17 h, read-out: maximum reduction of droplet cell viability) it was 62.9%; in experiment [4] (17 h, read-out: minimum reduction of droplet cell viability), 29.3%. In addition, the “share of total sample cell population in droplets with viability reduction of over 30%” value in experiment [4] (NAS1608, 10 μM bortezomib, 17 h) was 92.4%. In addition, the “droplet cell viability range” value in experiment [4] (NAS1608, 10 μM bortezomib) turned out to be 49.7%. In experiment [4] (NAS1608, 10 μM, 17 h), this molecule showed a mean cell death of 51.7%. Besides, the “dose dependence of normalized cell viability” value in experiment [4] (NAS1608, 16-24 h, normalized to mock treatment) is “dose-dependent reduction of cell viability”.

Consider `N.N.[Cl][Pt][Cl]` [cisplatin], for which, in experiment [1] (NAS1604, 20 μM), the “mean cell viability compared with other treatments” value is “lowest mean cell viability”. For the same molecule, the “range of droplet cell viability” value in experiment [1] (NAS1604, 20 μM cisplatin) was 64.0%; in experiment [4] (NAS1608, 100 μM cisplatin), 31.1%. The pIC50 in the experiment on MDA-MB-231 cells [2] is less than 4.30; in the experiment on Jurkat cells [3], 4.41; with MDA-MB-231 cells [5] it was 5.38; in the experiment with MDA-MB-231 cells [6] it was less than 4.30; in the experiment with Jurkat cells [7] it was 4.41. In addition, the “droplet cell viability range” value in experiment [4] (NAS1608, 100 μM cisplatin) came to 56.5%. This molecule also registered a mean cell death in experiment [4] (NAS1608, 100 μM, 17 h) of 21.0%.
